For 18 compounds, IC50 and Kd results are on record in patent US8946216B2, “Indazole derivatives useful as ERK inhibitors” (Merck Sharp & Dohme Corp., priority 2010, dated 2015).

For test [1], the target named is unphosphorylated Mouse ERK2 protein (inactive ERK2) (Mus musculus, UniProt P63085). Briefly: Coupled ERK2 (cERK) assay, coupled MEK1/ERK2 IMAP. The following applies: 30 min preincubation with inactive ERK2, then activation by human MEK1; 30 μM ATP; fluorescence polarization; read-out: cERK2 IC50. It is filed as biochemical. The procedure, abridged:
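Compound was preincubated with 0.4 ng unphosphorylated mouse ERK2 in Tris pH 7.2/MgCl2/DTT buffer (6.7% DMSO). ERK2 was then activated for 1 h by 2 ng active human MEK1 with 4 μM IMAP substrate peptide (100 nM fluorescein-labelled) and 30 μM ATP (final, 4% DMSO). Phosphorylation was read by IMAP bead fluorescence polarization after 30 min binding.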
In general terms: Polarisation of emitted light reports the rotation of a fluorescent probe.

For test [2], the target named is fully phosphorylated, active Mouse ERK2 protein (Mus musculus, UniProt P63085). Briefly: Active ERK2 (aERK) assay, IMAP format. It is filed as biochemical. Particulars: 30 min preincubation; 1 μM substrate peptide, 30 μM ATP; fluorescence polarization; read-out: aERK2 IC50. How it is done: Active ERK2 (aERK) Assay:
Activated ERK2 activity was also determined in the IMAP assay format using the procedure outlined above. 1 μl of 25× compound was added to 14 μl of kinase buffer containing 0.25 ng fully phosphorylated, active Mouse ERK2 protein. Following a 30 minute incubation, the reactions were initiated by addition of 10 μl of kinase buffer containing 1 μM ERK2 IMAP substrate peptide (0.9 μM unlabeled IPTTPITTTYFFFK--CONH2 and 100 nM IPTTPITTTYFFFK(5-carboxyfluorescein)-CONH2) and 30 μM ATP. Reactions proceeded for 30 minutes before termination by addition of 60 μl IMAP detection beads in binding buffer. Plates were read as above after 30 minute binding equilibration. Active compounds were reconfirmed in an independent assay.

The target in another test is ERK protein (Homo sapiens, UniProt P28482). Briefly: TdF (Temperature Dependence Fluorescence, thermal shift) assay for ERK. Type of test: binding. The following applies: read-out: TdF Kd; 3 μM ERK protein, 15, 50 or 100 μM compound, Sypro Orange; Kd calculated from ΔTm; uncertainty estimated ±50%. The procedure, abridged: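 Thermal shift with Sypro Orange: samples containing 3 μM in 2% final DMSO heated 30 to 90 °C at 1 °C/min, fluorescence at ex 490/em 560 nm. Kd derived from ΔTm versus protein alone by the Brandts–Lin model, with ΔCpL set to 0 and ΔHL to −7 kcal/mol; uncertainty ±50%.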
ERK protein, sequence (P28482 2-360): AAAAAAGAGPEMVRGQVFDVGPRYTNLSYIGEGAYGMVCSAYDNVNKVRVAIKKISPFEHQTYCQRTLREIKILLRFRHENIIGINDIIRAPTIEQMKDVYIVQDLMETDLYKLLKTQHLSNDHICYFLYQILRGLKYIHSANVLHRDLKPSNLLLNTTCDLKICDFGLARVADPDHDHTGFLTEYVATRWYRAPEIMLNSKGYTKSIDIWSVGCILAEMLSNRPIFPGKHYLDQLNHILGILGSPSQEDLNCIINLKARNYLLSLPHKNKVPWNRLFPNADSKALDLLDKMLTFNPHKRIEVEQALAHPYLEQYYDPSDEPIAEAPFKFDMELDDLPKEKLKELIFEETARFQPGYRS

fully phosphorylated, active Mouse ERK2 protein, sequence (P63085 whole entry): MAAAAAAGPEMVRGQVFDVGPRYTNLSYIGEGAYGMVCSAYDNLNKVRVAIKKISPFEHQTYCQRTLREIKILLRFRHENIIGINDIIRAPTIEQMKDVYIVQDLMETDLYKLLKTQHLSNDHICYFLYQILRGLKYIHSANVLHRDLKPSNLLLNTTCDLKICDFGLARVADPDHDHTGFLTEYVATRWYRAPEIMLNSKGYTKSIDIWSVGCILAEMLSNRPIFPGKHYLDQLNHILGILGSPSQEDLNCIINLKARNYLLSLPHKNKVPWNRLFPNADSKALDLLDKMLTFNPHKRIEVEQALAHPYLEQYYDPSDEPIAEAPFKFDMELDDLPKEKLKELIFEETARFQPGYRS
unphosphorylated Mouse ERK2 protein (inactive ERK2), sequence (P63085 whole entry): as above

Regarding `O=C(Nc1ccc2[nH]nc(-c3ccncc3)c2c1)C1CN(Cc2c(F)ccc(F)c2Cl)CCO1` (stereo not drawn) [Compound 48, 4-[(2-CHLORO-3,6-DIFLUOROPHENYL)METHYL]-N-[3-(4-PYRIDINYL)-1H-INDAZOL-5-YL]-2-MORPHOLINECARBOXAMIDE], the IC50 in test [1] was found to be 909 nM; in test [2] it was 371 nM. The Kd at ERK protein is 202 nM.
Taken in the same sequence, the figures for `O=C(Nc1ccc2[nH]nc(-c3ccncc3)c2c1)C1CN(Cc2cc(Cl)cc(Cl)c2)CCO1` (stereo not drawn) [Compound 50, 4-[(3,5-DICHLOROPHENYL)METHYL]-N-[3-(4-PYRIDINYL)-1H-INDAZOL-5-YL]-2-MORPHOLINECARBOXAMIDE] were 8840 nM, 8680 nM and 500 nM.
For `O=C(Nc1ccc2[nH]nc(-c3ccncc3)c2c1)C1CNCCC1c1ccc(F)cc1` (stereo not drawn) [Compound 52, 4-(4-FLUOROPHENYL)-N-(3-(PYRIDIN-4-YL)-1H-INDAZOL-5-YL)PIPERIDINE-3-CARBOXAMIDE], the IC50 in test [1] is 60.8 nM; in test [2] it was 56.5 nM. For the same compound, the Kd at ERK protein was 18 nM.
Taken in the same sequence, the figures for `O=C(Nc1ccc2[nH]nc(-c3ccncc3)c2c1)C1CNCCC1c1ccccc1` (stereo not drawn) [Compound 53, 4-PHENYL-N-[3-(4-PYRIDINYL)-1H-INDAZOL-5-YL]-3-PIPERIDINECARBOXAMIDE] were 69.5 nM, 102 nM and 70 nM.
Turning to `N#Cc1ccccc1N1CCCC(C(=O)Nc2ccc3[nH]nc(-c4ccncc4)c3c2)C1` (stereo not drawn) [Compound 55, 1-(2-CYANOPHENYL)-N-[3-(4-PYRIDINYL)-1H-INDAZOL-5-YL]-3-PIPERIDINECARBOXAMIDE], the IC50 was 91.5 nM in test [1] and 82.3 nM in test [2]. Besides, the Kd on ERK protein was 23 nM.
As to `O=C(Nc1ccc2[nH]nc(-c3ccncc3)c2c1)C1CCCN(C(=O)c2ccccc2)C1` (stereo not drawn) [Compound 56, 1-BENZOYL-N-[3-(4-PYRIDINYL)-1H-INDAZOL-5-YL]-3-PIPERIDINECARBOXAMIDE], the IC50 came out at 150 nM in test [1] and 553 nM in test [2]. The Kd on ERK protein is 420 nM.
Taken in the same sequence, the figures for `O=C(Nc1ccc2[nH]nc(-c3ccncc3)c2c1)[C@@H]1CN(Cc2ccccc2)CCN1` [Compound 57, 4-(PHENYLMETHYL)-N-[3-(4-PYRIDINYL)-1H-INDAZOL-5-YL]-2(S)-PIPERAZINECARBOXAMIDE] were 61.8 nM, 52 nM and 49 nM.
Taken in the same sequence, the figures for `O=C(Nc1ccc2[nH]nc(-c3ccncc3)c2c1)C1CN(C(=O)OCc2ccccc2)CCN1` (stereo not drawn) [Compound 58, PHENYLMETHYL 3-[[[3-(4-PYRIDINYL)-1H-INDAZOL-5-YL]AMINO]CARBONYL]-1-PIPERAZINECARBOXYLATE] were 960 nM, 2200 nM and 602 nM.
Taken in the same sequence, the figures for `O=C(Nc1ccc2[nH]nc(-c3ccncc3)c2c1)[C@H]1CN(Cc2ccccc2)CCN1` [Compound 59, 4-(PHENYLMETHYL)-N-[3-(4-PYRIDINYL)-1H-INDAZOL-5-YL]-2(R)-PIPERAZINECARBOXAMIDE] were 21.6 nM, 16.3 nM and 21 nM.
For `O=C(Nc1ccc2[nH]nc(-c3ccncc3)c2c1)[C@@H]1CN(Cc2ccccc2F)CCS1` [Compound 60, 4-[(2-FLUOROPHENYL)METHYL]-N-[3-(4-PYRIDINYL)-1H-INDAZOL-5-YL]-2(S)-THIOMORPHOLINECARBOXAMIDE], the IC50 in test [1] amounted to 72.3 nM; in test [2], 175 nM. Besides, the Kd at ERK protein is 6 nM.
Taken in the same sequence, the figures for `O=C(Nc1ccc2[nH]nc(-c3ccncc3)c2c1)[C@H]1CN(Cc2ccccc2F)CCS1` [Compound 61, 4-[(2-FLUOROPHENYL)METHYL]-N-[3-(4-PYRIDINYL)-1H-INDAZOL-5-YL]-2(R)-THIOMORPHOLINECARBOXAMIDE] were 19.9 nM, 8.1 nM and 5 nM.
As to `CSC1(C(=O)Nc2ccc3[nH]nc(-c4ccncc4)c3c2)CCN(Cc2ccccc2F)C1` (stereo not drawn) [Compound 63, 1-[(2-FLUOROPHENYL)METHYL]-3-(METHYLTHIO)-N-[3-(4-PYRIDINYL)-1H-INDAZOL-5-YL]-3-PYRROLIDINECARBOXAMIDE], the results for the IC50 in test [1] and in test [2] were 121 nM and 211 nM, respectively. For the same compound, the Kd at ERK protein is 13.5 nM.
Taken in the same sequence, the figures for `O=C(Nc1ccc2[nH]nc(-c3ccncc3)c2c1)C1CCN(Cc2ccccc2)C1` (stereo not drawn) [Compound 64, 1-(PHENYLMETHYL)-N-[3-(4-PYRIDINYL)-1H-INDAZOL-5-YL]-3-PYRROLIDINECARBOXAMIDE] were 171 nM, 245 nM and 35.6 nM.
Turning to `O=C(Nc1ccc2[nH]nc(-c3ccncc3)c2c1)C1CCN(Cc2ccccc2F)C1` (stereo not drawn) [Compound 65, 1-[(2-FLUOROPHENYL)METHYL]-N-[3-(4-PYRIDINYL)-1H-INDAZOL-5-YL]-3-PYRROLIDINECARBOXAMIDE], the IC50 in test [1] came to 77.1 nM; in test [2] it was 100 nM. The Kd on ERK protein is 29.4 nM.
For `O=C(Nc1ccc2[nH]nc(-c3ccncc3)c2c1)C1(CO)CCCN(Cc2ccccc2)C1` (stereo not drawn) [Compound 66, 3-(HYDROXYMETHYL)-1-(PHENYLMETHYL)-N-[3-(4-PYRIDINYL)-1H-INDAZOL-5-YL]-3-PIPERIDINECARBOXAMIDE], the figures for the IC50 in test [1] and in test [2] were 1000 nM and 439 nM, respectively. In addition, the Kd on ERK protein is 104 nM.
As to `O=C(Nc1ccc2[nH]nc(-c3ccncc3)c2c1)C1CN(Cc2ccccc2F)CC[S+]1[O-]` (stereo not drawn) [Compound 69, 4-[(2-FLUOROPHENYL)METHYL]-N-[3-(4-PYRIDINYL)-1H-INDAZOL-5-YL]-2-THIOMORPHOLINECARBOXAMIDE, 1-OXIDE], the IC50 in test [1] was determined as 8.3 nM; in test [2], 2.7 nM. In addition, the Kd on ERK protein was 4.4 nM.
Taken in the same sequence, the figures for `O=C(Nc1ccc2[nH]nc(-c3ccncc3)c2c1)C1CN(Cc2ccccc2F)CCS1(=O)=O` (stereo not drawn) [Compound 70, 4-[(2-FLUOROPHENYL)METHYL]-N-[3-(4-PYRIDINYL)-1H-INDAZOL-5-YL]-2-THIOMORPHOLINECARBOXAMIDE, 1,1-DIOXIDE] were 17.7 nM, 13.9 nM and 12 nM.
Taken in the same sequence, the figures for `O=C(Nc1ccc2[nH]nc(-c3ccncc3)c2c1)C1CNCC(c2ccccc2)C1` (stereo not drawn) [Compound 79, 5-PHENYL-N-[3-(4-PYRIDINYL)-1H-INDAZOL-5-YL]-3-PIPERIDINECARBOXAMIDE] were 69.4 nM, 124 nM and 8 nM.

Usually IC50 stands for the concentration at which inhibition is half-maximal. The Kd is the equilibrium constant for the complex coming apart.
